Source: US20130317029A1 (PORTOLA PHARMACEUTICALS, INC., priority 2010, published 2013)

Tested on: Src kinsase
Experiment: not given
Conditions: cited from earlier work
In the case of `COc1cc(Nc2ncc(F)c(Nc3ccc4c(n3)NC(=O)C(C)(C)O4)n2)cc(OC)c1OC` [Example R406], the “activity against Src kinase” value is listed as “not against”.

Tested on: refractory NHL and chronic lymphocytic leukemia
Experiment: not given
Conditions: cited from earlier work
In the case of `COc1cc(Nc2ncc(F)c(Nc3ccc4c(n3)NC(=O)C(C)(C)O4)n2)cc(OC)c1OC` [Example R406], the “phase II clinical trial outcome” value is listed as “favorable results”.

Molecular target: T1, full length active recombinant SYK enzyme (Homo sapiens, UniProt P43405)
T1 construct: full length active recombinant SYK enzyme (Millipore, Calif.); purchased Millipore
Experiment: Inhibition of Syk tyrosine phosphorylation activity (LANCE TR-FRET kinase assay)
Type: biochemical
Conditions: not given
Summary of the method: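 Full-length active recombinant SYK (1 nM) phosphorylated biotinylated SYK-specific peptide (550 nM) with 100 μM ATP in 50 mM Tris pH 7.5, 5 mM MgCl2, 1 mM DTT, 3% DMSO, 1 h at room temperature. EDTA quench with Eu-anti-phosphotyrosine and SA-APC, 1 h TR-FRET read; IC50 by non-linear regression.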
Work on `CCNc1nc(Nc2cccc(C)c2)c(C(N)=O)c(OCCCN)n1` [Example 52, 4-(m-toluidino)-6-(3-aminopropoxy)-2-(ethylamino)pyrimidine-5-carboxamide] yielded an IC50 greater than 1000 nM.
In the case of `CC(=O)N(C)c1ccc(Nc2nc(NC3CC3)c(C(N)=O)c(=O)[nH]2)cc1` [Example 58, 4-(cyclopropylamino)-2-(4-(N-methylacetamido)phenylamino)-6-oxo-1,6-dihydropyrimidine-5-carboxamide], the IC50 is reported as greater than 1000 nM.
For `CC[C@@H](Nc1nc(Nc2ccc(OCCOC)cc2)c(C(N)=O)c(=O)[nH]1)C(N)=O` [Example 94, (R)-2-(1-amino-1-oxobutan-2-ylamino)-4-(4-(2-methoxyethoxy)phenylamino)-6-oxo-1,6-dihydropyrimidine-5-carboxamide], the IC50 was 1 to 10 nM.
`CC[C@@H](Nc1nc(Nc2cccc(OCCOC)c2)c(C(N)=O)c(=O)[nH]1)C(N)=O` [Example 99, (R)-2-(1-amino-1-oxobutan-2-ylamino)-4-(3-(2-methoxyethoxy)phenylamino)-6-oxo-1,6-dihydropyrimidine-5-carboxamide] gave an IC50 of 1 to 10 nM.
Molecule `CC(C)C[C@@H](Nc1nc(Nc2ccc(-c3ccncc3)cc2)c(C(N)=O)c(=O)[nH]1)C(N)=O` [Example 111, (R)-2-(1-amino-4-methyl-1-oxopentan-2-ylamino)-6-oxo-4-(4-(pyridin-4-yl)phenylamino)-1,6-dihydropyrimidine-5-carboxamide] has an IC50 of 1 to 10 nM.
With `CC(C)C[C@@H](Nc1nc(Nc2cccc(-n3nccn3)c2)c(C(N)=O)c(=O)[nH]1)C(N)=O` [Example 7, (R)-4-(3-(2H-1,2,3-triazol-2-yl)phenylamino)-2-(1-amino-4-methyl-1-oxopentan-2-ylamino)-6-oxo-1,6-dihydropyrimidine-5-carboxamide] the IC50 was 10 to 100 nM.
For `COc1nc(Nc2ccc(N3CCN(C(C)=O)CC3)cc2)nc(NC2CC2)c1C(N)=O` [Example 69, 2-(4-(4-acetylpiperazin-1-yl)phenylamino)-4-(cyclopropylamino)-6-methoxypyrimidine-5-carboxamide], the IC50 was greater than 1000 nM.
Molecule `CNCCNc1nc(Nc2cccc(C)c2)c(C(N)=O)c(=O)[nH]1` [Example 14] has an IC50 of 10 to 100 nM.
With `Cc1cc(C)cc(Nc2nc(NC3CC3)[nH]c(=O)c2C(N)=O)c1` [Example 60, 2-(cyclopropylamino)-4-(3,5-dimethylphenylamino)-6-oxo-1,6-dihydropyrimidine-5-carboxamide] the IC50 was greater than 1000 nM.
`CC[C@@H](Nc1nc(Nc2cccc(OC(F)F)c2)c(C(N)=O)c(=O)[nH]1)C(N)=O` [Example 88, (R)-2-(1-amino-1-oxobutan-2-ylamino)-4-(3-(difluoromethoxy)phenylamino)-6-oxo-1,6-dihydropyrimidine-5-carboxamide] showed an IC50 of 1 to 10 nM.
In the case of `CC[C@@H](Nc1nc(Nc2cccc(-n3nccn3)c2)c(C(N)=O)c(=O)[nH]1)C(N)=O` [Example 8, (R)-4-(3-(2H-1,2,3-triazol-2-yl)phenylamino)-2-(1-amino-1-oxobutan-2-ylamino)-6-oxo-1,6-dihydropyrimidine-5-carboxamide], the IC50 is reported as 10 to 100 nM.
With `NC(=O)c1c(Nc2cccc(-n3nccn3)c2)nc(N[C@@H]2CCCC[C@@H]2N)[nH]c1=O` [Example 5] the IC50 was 1 to 10 nM.
`COc1nc(N[C@@H](C(N)=O)c2ccccc2)nc(Nc2cc(C)cc(C)c2)c1C(N)=O` [Example 72, (R)-2-(2-amino-2-oxo-1-phenylethylamino)-4-(3,5-dimethylphenylamino)-6-methoxypyrimidine-5-carboxamide] gave an IC50 of 100 to 1000 nM.
Molecule `Cc1cccc(Nc2nc(NC[C@H](C)N)nc(OCCO)c2C(N)=O)c1` [Example 53, (S)-4-(m-toluidino)-2-(2-aminopropylamino)-6-(2-hydroxyethoxy)pyrimidine-5-carboxamide] has an IC50 greater than 1000 nM.
`CC[C@@H](Nc1nc(Nc2cccc(-n3cccn3)c2)c(C(N)=O)c(=O)[nH]1)C(N)=O` [Example 34] gave an IC50 of 1 to 10 nM.
Work on `COc1nc(Nc2ccc(N3CCN(C(C)=O)CC3)cc2)nc(Nc2cccc(C)c2)c1C(N)=O` [Example 74, 4-(m-toluidino)-2-(4-(4-acetylpiperazin-1-yl)phenylamino)-6-methoxypyrimidine-5-carboxamide] yielded an IC50 greater than 1000 nM.
`Cc1cc(C)cc(Nc2nc(NCC(N)=O)[nH]c(=O)c2C(N)=O)c1` [Example 49, 2-(2-amino-2-oxoethylamino)-4-(3,5-dimethylphenylamino)-6-oxo-1,6-dihydropyrimidine-5-carboxamide] showed an IC50 of 10 to 100 nM.
With `CC(C)C[C@@H](Nc1nc(Nc2ccc(OC(F)(F)F)cc2)c(C(N)=O)c(=O)[nH]1)C(N)=O` [Example 91, (R)-2-(1-amino-4-methyl-1-oxopentan-2-ylamino)-4-(4-(trifluoromethoxy)phenylamino)-6-oxo-1,6-dihydropyrimidine-5-carboxamide] the IC50 was 1 to 10 nM.
For `NC(=O)c1c(O)nc(NC2CCCCC2N)nc1NC1CC1` (stereo not shown) [Example 48, 2-(2-aminocyclohexylamino)-4-(cyclopropylamino)-6-hydroxypyrimidine-5-carboxamide], the IC50 was greater than 1000 nM.
With `CC(C)[C@@H](Nc1nc(Nc2cccc(-c3ccccn3)c2)c(C(N)=O)c(=O)[nH]1)C(N)=O` [Example 96, (R)-2-(1-amino-3-methyl-1-oxobuan-2-ylamino)-6-oxo-4-(3-(pyridin-2-yl)phenylamino)-1,6-dihydropyrimidine-5-carboxamide] the IC50 was 1 to 10 nM.
`COc1nc(Nc2ccc(N3CCOCC3)cc2)nc(Nc2cccc(C)c2)c1C(N)=O` [Example 70, 4-(m-toluidino)-6-methoxy-2-(4-morpholinophenylamino)pyrimidine-5-carboxamide] gave an IC50 greater than 1000 nM.
`COc1nc(NCC(N)=O)nc(Nc2cc(C)cc(C)c2)c1C(N)=O` [Example 50, 2-(2-amino-2-oxoethylamino)-4-(3,5-dimethylphenylamino)-6-methoxypyrimidine-5-carboxamide] gave an IC50 of 100 to 1000 nM.
In the case of `CC[C@@H](Nc1nc(Nc2cccc(-c3ncccc3F)c2)c(C(N)=O)c(=O)[nH]1)C(N)=O` [Example 81, (R)-2-(1-amino-1-oxobutan-2-ylamino)-6-oxo-4-(3-(3-fluoropyridin-2-yl)phenylamino)-1,6-dihydropyrimidine-5-carboxamide], the IC50 is reported as 1 to 10 nM.
`CC(C)C[C@@H](Nc1nc(Nc2ccc3cccnc3c2)c(C(N)=O)c(=O)[nH]1)C(N)=O` [Example 107, (R)-2-(1-amino-4-methyl-1-oxopentan-2-ylamino)-6-oxo-4-(quinolin-7-ylamino)-1,6-dihydropyrimidine-5-carboxamide] gave an IC50 of 1 to 10 nM.
Molecule `CNC(=O)[C@@H](CC(C)C)Nc1nc(Nc2cccc(-c3ccccn3)c2)c(C(N)=O)c(=O)[nH]1` [Example 100, (R)-2-(4-methyl-1-(methylamino)-1-oxopentan-2-ylamino)-6-oxo-4-(3-(pyridin-2-yl)phenylamino)-1,6-dihydropyrimidine-5-carboxamide] has an IC50 greater than 1000 nM.
Work on `CC[C@@H](Nc1nc(Nc2cccc(-n3ccnc3)c2)c(C(N)=O)c(=O)[nH]1)C(N)=O` [Example 119, (R)-2-(1-amino-1-oxobutan-2-ylamino)-4-(3-(1H-imidazol-1-yl)phenylamino)-6-oxo-1,6-dihydropyrimidine-5-carboxamide] yielded an IC50 of 1 to 10 nM.
For `CNCCNc1nc(Nc2cccc(-n3nccn3)c2)c(C(N)=O)c(=O)[nH]1` [Example 23, 4-(3-(2H-1,2,3-triazol-2-yl)phenylamino)-2-(2-(methylamino)ethylamino)-6-oxo-1,6-dihydropyrimidine-5-carboxamide], the IC50 was 10 to 100 nM.
In the case of `COc1nc(N[C@@H]2CCCC[C@@H]2N)nc(Nc2cccc(-n3nccn3)c2)c1C(N)=O` [Example 3, 2-((1R,2S)-2-aminocyclohexylamino)-4-(3-(2H-1,2,3-triazol-2-yl)phenylamino)-6-methoxypyrimidine-5-carboxamide], the IC50 is reported as 10 to 100 nM.
For `CC(=O)N1CCN(c2ccc(Nc3nc(NC4CC4)c(C(N)=O)c(=O)[nH]3)cc2)CC1` [Example 62, 2-(4-(4-acetylpiperazin-1-yl)phenylamino)-4-(cyclopropylamino)-6-oxo-1,6-dihydropyrimidine-5-carboxamide], the IC50 was greater than 1000 nM.
In the case of `Cc1cc(C)cc(Nc2nc(NC3CCCCC3N)[nH]c(=O)c2C(N)=O)c1` (stereo not shown) [Example 57, 2-(2-aminocyclohexylamino)-4-(3,5-dimethylphenylamino)-6-oxo-1,6-dihydropyrimidine-5-carboxamide], the IC50 is reported as 100 to 1000 nM.
Work on `CC(C)C[C@@H](Nc1nc(Nc2cnc3ccccc3c2)c(C(N)=O)c(=O)[nH]1)C(N)=O` [Example 108, (R)-2-(1-amino-4-methyl-1-oxopentan-2-ylamino)-6-oxo-4-(quinolin-3-ylamino)-1,6-dihydropyrimidine-5-carboxamide] yielded an IC50 of less than 1 nM.

Tested on: JAK kinases
Experiment: not given
Conditions: cited from earlier work
In the case of `COc1cc(Nc2ncc(F)c(Nc3ccc4c(n3)NC(=O)C(C)(C)O4)n2)cc(OC)c1OC` [Example R406], the “activity against JAK kinases” value is listed as “active”.

Tested on: lymphoma cell lines and primary human lymphoma samples
Experiment: not given
Conditions: lymphoma cell lines and primary human lymphoma samples; cited from earlier work
For `COc1cc(Nc2ncc(F)c(Nc3ccc4c(n3)NC(=O)C(C)(C)O4)n2)cc(OC)c1OC` [Example R406], the BCR signaling is listed as “attenuates BCR signaling”.

Same assay, conditions: lymphoma cell lines; cited from earlier work
For `COc1cc(Nc2ncc(F)c(Nc3ccc4c(n3)NC(=O)C(C)(C)O4)n2)cc(OC)c1OC` [Example R406], the apoptosis is listed as “resulting in apoptosis”.

Tested on: ITAM signaling
Experiment: not given
Conditions: in response to various stimuli, including FcεR1 and BCR induced Syk activation; cited from earlier work
For `COc1cc(Nc2ncc(F)c(Nc3ccc4c(n3)NC(=O)C(C)(C)O4)n2)cc(OC)c1OC` [Example R406], the “inhibition of ITAM signaling” value is given as “inhibit ITAM signaling”.
